Experiments:
[1] = target: T1, protein-protein interaction between hSOS1 and hKRASG12C (Homo sapiens, UniProt Q07889); assay: KRAS-SOS1 interaction assay (HTRF); type: binding; conditions: GST-hSOS1 564-1049aa, HIS-hKRASG12C, read-out: KRAS-SOS1 Interaction inhibition IC50
T1 construct: GST-hSOS1, 564-1049aa expressed and purified in-house
T1 sequence (Q07889 564-1049): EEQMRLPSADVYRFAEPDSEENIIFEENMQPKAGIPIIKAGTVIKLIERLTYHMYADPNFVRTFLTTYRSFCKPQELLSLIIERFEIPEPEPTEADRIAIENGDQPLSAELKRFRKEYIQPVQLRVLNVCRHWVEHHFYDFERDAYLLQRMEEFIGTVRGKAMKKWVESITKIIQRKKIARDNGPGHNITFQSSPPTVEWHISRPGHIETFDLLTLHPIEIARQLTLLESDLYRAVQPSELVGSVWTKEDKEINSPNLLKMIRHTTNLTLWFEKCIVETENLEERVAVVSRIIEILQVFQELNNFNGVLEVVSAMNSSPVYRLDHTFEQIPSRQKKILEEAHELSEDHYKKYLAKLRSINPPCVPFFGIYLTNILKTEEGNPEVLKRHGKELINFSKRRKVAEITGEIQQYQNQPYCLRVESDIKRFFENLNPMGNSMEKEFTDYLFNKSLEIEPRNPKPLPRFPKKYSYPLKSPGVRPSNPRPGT
How it was run: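 GST-hSOS1 (564-1049aa) at 10-50 nM working solution pre-incubated with compounds 10 min at 20° C in HEPES pH 7.4 buffer with EDTA, DTT, BSA and Igepal. HIS-hKRASG12C (100-300 nM working solution) added for 30-60 min, then anti-GST-d2/anti-HIS-Tb detection; percent inhibition from the 665/620 nm ratio.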

[2] = target: T2, nucleotide exchange on hKRASG12C mediated by hSOS1 (Homo sapiens, UniProt Q07889); assay: Guanine nucleotide exchange assay (GNEA, HTRF); type: biochemical; conditions: HIS-hSOS1 564-1049aa mediated GTP loading onto GST-hKRASG12C 1-169aa, read-out: Guanine nucleotide exchange inhibition IC50
T2 construct: HIS-hSOS1, 564-1049aa mediated GTP loading onto GST-hKRASG12C; His (N); made in house
T2 sequence (Q07889 564-1049): T1 sequence (Q07889 564-1049)
How it was run: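 Compounds were pre-incubated 10 min at 20 °C with HIS-hSOS1 (564-1049aa) and EDA-GTP-DY-647P1 (working solution 10-50 nM and 200 nM) in pH 7.4 HEPES with NaCl, MgCl2, DTT, BSA and Igepal. GST-hKRASG12C (1-169aa, 25-125 nM working solution) plus anti-GST-Tb was added for 30-60 min at 20 °C. Percent inhibition came from the HTRF 665/620 nm ratio.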

[3] = tested on: pERK after EGF stimulation in DLD1 cells; assay: ERK phosphorylation assay (alphascreen pERK); type: cell-based; conditions: Homo sapiens, DLD-1, 2 h compound, 200 ng/ml hEGF for 5 minutes, read-out: ERK phosphorylation inhibition IC50
How it was run: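 DLD1 cells pretreated with test compounds for 2 h, then stimulated with 200 ng/ml hEGF for 5 min. Lysates assayed by AlphaScreen SureFire for ERK1/2 p-T202/Y204, read after 2 h at 25–28 °C. % inhibition relative to the stimulated-minus-unstimulated vehicle window.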

SMILES	IC50 [1]	IC50 [2]	IC50 [3]
Cc1nc(N[C@H](C)c2cccc(C(F)(F)C(C)(C)O)c2F)c2cc3c(cc2n1)OC(C)(C)CN3C [Compound 34, (R)-1,1-Difluoro-1-(2-fluoro-3-(1-((2,6,8,8-tetramethyl-7,8-dihydro-6H-[1,4]oxazino [3,2-g]quinazolin-4-yl)amino)ethyl)phenyl)-2-methylpropan-2-ol]	1 to 10 nM	31 to 130 nM	1 to 200 nM
Cc1nc(N[C@H](C)c2cccc(C(F)(F)CO)c2F)c2cc3c(cc2n1)OC(C)(C)CN3C [Compound 35, (R)-2,2-Difluoro-2-(2-fluoro-3-(1-((2,6,8,8-tetramethyl-7,8-dihydro-6H-[1,4]oxazino[3,2-g]quinazolin-4-yl)amino)ethyl)phenyl)ethan-1-ol]	1 to 10 nM	1 to 30 nM	1 to 200 nM
Cc1nc(N[C@H](C)c2cccc(C(F)(F)C(C)(C)O)c2F)c2cc3c(cc2n1)OCC(C)(C)N3C [Compound 37, (R)-1,1-Difluoro-1-(2-fluoro-3-(1-((2,6,7,7-tetramethyl-7,8-dihydro-6H-[1,4]oxazino[3,2-g]quinazolin-4-yl)amino)ethyl)phenyl)-2-methylpropan-2-ol]	1 to 10 nM	1 to 30 nM	1 to 200 nM
Cc1nc(N[C@H](C)c2cccc(C(F)(F)C(C)(C)O)c2F)c2cc3c(cc(C)c(=O)n3C)cc2n1 [Compound 38, (R)-4-((1-(3-(1,1-Difluoro-2-hydroxy-2-methylpropyl)-2-fluorophenyl)ethyl)amino)-2,6,8-trimethylpyrido[2,3-g]quinazolin-7(6H)-one]	1 to 10 nM	1 to 30 nM	1 to 200 nM
Cc1nc(N[C@H](C)c2cccc(C(F)(F)C(C)(C)O)c2F)c2cc3c(cc2n1)nc(C)c(=O)n3C [Compound 39, (R)-4-((1-(3-(1,1-Difluoro-2-hydroxy-2-methylpropyl)-2-fluorophenyl)ethyl)amino)-2,6,8-trimethylpyrazino[2,3-g]quinazolin-7(6H)-one]	1 to 10 nM	1 to 30 nM	1 to 200 nM
Cc1nc(N[C@H](C)c2cccc(C(F)(F)C(C)(C)O)c2F)c2cc3c(cc2n1)C(C)(C)CC(=O)N3C [Compound 42, (R)-4-((1-(3-(1,1-difluoro-2-hydroxy-2-methylpropyl)-2-fluorophenyl)ethyl)amino)-2,6,9,9-tetramethyl-8,9-dihydropyrido[2,3-g]quinazolin-7(6H)-one]	1 to 10 nM	1 to 30 nM	1 to 200 nM
Cc1nc(N[C@H](C)c2cccc(C(F)(F)C(C)(C)O)c2F)c2cc3c(cc2n1)OCCN3C [Compound 45, (R)-1-(3-(1-((2,6-dimethyl-7,8-dihydro-6H-[1,4]oxazino[3,2-g]quinazolin-4-yl)amino)ethyl)-2-fluorophenyl)-1,1-difluoro-2-methylpropan-2-ol]	1 to 10 nM	31 to 130 nM	1 to 200 nM
Cc1nc(N[C@H](C)c2cccc(C(F)(F)C(C)(C)O)c2F)c2cc3c(c(F)c2n1)OCC(=O)N3C [Compound 47, (R)-4-((1-(3-(1,1-difluoro-2-hydroxy-2-methylpropyl)-2-fluorophenyl)ethyl)amino)-10-fluoro-2,6-dimethyl-6H-[1,4]oxazino[3,2-g]quinazolin-7(8H)-one]	11 to 25 nM	31 to 130 nM	1 to 200 nM
Cc1nc(N[C@H](C)c2cccc(C(F)(F)C(C)(O)CF)c2F)c2cc3c(cc2n1)OC(C)(C)C(=O)N3C (stereo partly drawn) [Compound 54, (R&S)-4-(((1R)-1-(2-fluoro-3-(1,1,3-trifluoro-2-hydroxy-2-methylpropyl)phenyl)ethyl)amino)-2,6,8,8-tetramethyl-6H-[1,4]oxazino[3,2-g]quinazolin-7(8H)-one]	1 to 10 nM	1 to 30 nM	1 to 200 nM
CNCC(C)(O)C(F)(F)c1cccc([C@@H](C)Nc2nc(C)nc3cc4c(cc23)N(C)C(=O)C(C)(C)O4)c1F (stereo partly drawn) [Compound 55, (R&S)-4-(((1R)-1-(3-(1,1-difluoro-2-hydroxy-2-methyl-3-(methylamino)propyl)-2-fluorophenyl)ethyl)amino)-2,6,8,8-tetramethyl-6H-[1,4]oxazino[3,2-g]quinazolin-7(8H)-one]	1 to 10 nM	1 to 30 nM	1 to 200 nM
Cc1nc(N[C@H](C)c2cccc(C(F)(F)C(C)(C)O)c2F)c2cc3c(cc2n1)N(C)C(=O)C31CCCC1 [Compound 58, (R)-4′-((1-(3-(1,1-difluoro-2-hydroxy-2-methylpropyl)-2-fluorophenyl)ethyl)amino)-2′,8′-dimethylspiro[cyclopentane-1,6′-pyrrolo[3,2-g]quinazolin]-7′(8′H)-one]	1 to 10 nM	1 to 30 nM	1 to 200 nM
Cc1nc(N[C@H](C)c2cccc(C(F)(F)CO)c2F)c2cc3c(cc2n1)N(C)C(=O)C31CCCC1 [Compound 62, (R)-4′-((1-(3-(1,1-difluoro-2-hydroxyethyl)-2-fluorophenyl)ethyl)amino)-2′,8′-dimethylspiro[cyclopentane-1,6′-pyrrolo[3,2-g]quinazolin]-7′(8′H)-one]	1 to 10 nM	1 to 30 nM	1 to 200 nM
COCCN1C(=O)C(C)(C)c2cc3nc(C)nc(N[C@H](C)c4cccc(C(F)(F)C(C)(C)O)c4F)c3cc21 [Compound 63, (R)-4-((1-(3-(1,1-difluoro-2-hydroxy-2-methylpropyl)-2-fluorophenyl)ethyl)amino)-6-(2-methoxyethyl)-2,8,8-trimethyl-6,8-dihydro-7H-pyrrolo[2,3-g]quinazolin-7-one]	1 to 10 nM	1 to 30 nM	1 to 200 nM
CCN1C(=O)C(C)(C)c2cc3nc(C)nc(N[C@H](C)c4cccc(C(F)(F)C(C)(C)O)c4F)c3cc21 [Compound 64, (R)-4-((1-(3-(1,1-difluoro-2-hydroxy-2-methylpropyl)-2-fluorophenyl)ethyl)amino)-6-ethyl-2,8,8-trimethyl-6,8-dihydro-7H-pyrrolo[2,3-g]quinazolin-7-one]	1 to 10 nM	1 to 30 nM	1 to 200 nM
Cc1nc(N[C@H](C)c2cccc(C(F)(F)CO)c2F)c2cc3c(cc2n1)N(C)C(=O)C31CC1 [Compound 66, (R)-4′-((1-(3-(1,1-difluoro-2-hydroxyethyl)-2-fluorophenyl)ethyl)amino)-2′,8′-dimethylspiro [cyclopropane-1,6′-pyrrolo[3,2-g]quinazolin]-7′(8′H)-one]	1 to 10 nM	1 to 30 nM	1 to 200 nM
Cc1nc(N[C@H](C)c2cc(N)cc(C(F)(F)F)c2)c2cc3c(cc2n1)C(C)(C)C(=O)N3C [Compound 70, (R)-4-((1-(3-amino-5-(trifluoromethyl)phenyl)ethyl)amino)-2,6,8,8-tetramethyl-6H-pyrrolo[2,3-g]quinazolin-7(8H)-one]	1 to 10 nM	31 to 130 nM	1 to 200 nM
Cc1nc(N[C@H](C)c2cccc(C(F)(F)C(C)(C)O)c2F)c2cc3c(cc2n1)C(C)(C)CN3C [Compound 75, (R)-1,1-difluoro-1-(2-fluoro-3-(1-((2,6,8,8-tetramethyl-7,8-dihydro-6H-pyrrolo[2,3-g]quinazolin-4-yl)amino)ethyl)phenyl)-2-methylpropan-2-ol]	11 to 25 nM	31 to 130 nM	1 to 200 nM

Source: US20260209247A1, “Substituted Tricyclic Compounds” (Lupin Limited, priority 2019, published 2026)
